From ChEMBL document CHEMBL1201862, “PubChem BioAssay data set” (2004)
Activity calls are given as the source filed them.

Assays:
cells [1] = assay type: functional, cell-based
Bcl-2-like protein 10 = molecular target: T1, Bcl-2-like protein 10 (Homo sapiens, UniProt Q9HD36); assay: Concentration-response of Bcl-B inhibitors by biochemical FP with TR3 (AID 1243); assay type: functional
T1 sequence (Q9HD36 whole entry): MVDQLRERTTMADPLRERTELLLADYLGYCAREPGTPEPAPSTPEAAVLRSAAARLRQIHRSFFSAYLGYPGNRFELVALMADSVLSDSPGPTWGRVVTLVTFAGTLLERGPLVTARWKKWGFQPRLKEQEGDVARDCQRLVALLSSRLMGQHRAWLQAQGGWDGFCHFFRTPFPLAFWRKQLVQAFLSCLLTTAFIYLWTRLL

cells [2] = assay type: functional, cell-based; remark: listed apart in the source
Vero = assay: viability of Vero cells under compound – cytotoxicity control for flavivirus capping enzyme inhibitors (AID 588742); assay type: functional; conditions: Chlorocebus sabaeus
Protein Tat = Protein Tat (Human immunodeficiency virus type 1 group M subtype B (isolate HXB2)(HIV-1), UniProt P04608); assay type: functional;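 also: tat binding to TAR RNA read out by fluorescence polarization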
[3] = viability loss in THP-1 monocytes – THP-1 cells, cytotoxicity control for Vif-APOBEC3G degradation inhibitor project, dose response (AID 1117359); assay type: functional; conditions: THP-1
[4] = HIV-1 Vif–A3G interaction blockers – biochemical, TR-FRET, GST-Vif 1-94, biotin-A3G peptide, dose response retest, primary screen (AID 1117319); assay type: functional;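 also: TR-FRET signal of purified GST-Vif binding a biotinylated A3G peptide; inhibitors lower the FRET signal by blocking Vif and A3G binding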
[5] = viability of uninfected HEp-2 cells – cell-based, HTS, cytotoxicity control for RSV inhibitor project, dose response (AID 2410); assay type: functional; conditions: human respiratory syncytial virus
HEK293 = assay: Fluorescence-based counterscreen for potentiators or agonists of NPY-Y2: cell-based high-throughput dose response assay to identify inhibitors of cyclic nucleotide gated ion channel (CNGC) activity. In this assay, the parental HEK293 cell line transfected with a cyclic-nucleotide gated ion channel (CNGC)-based cAMP sensor is used to measure inhibition of isoproterenol-induced CNGC activity by test compound.; assay type: functional; conditions: Homo sapiens;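 also: stimulus is 1 µM isoproterenol at EC100 plus PDE inhibitor Ro 20-1724 at 25 µM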
[6] = molecular target: T2, Neuropeptide Y receptor type 2 (Homo sapiens, UniProt P49146); assay: Fluorescence-based cell-based high-throughput dose response assay for agonists of NPY-Y2. [Related pubchem assays: 1703 (Screening assay (CNGC inhibitors).), 1359 (Screening assay (NPY-Y2 potentiators or agonists).), 1304 (Screening assay (NPY-Y1 potentiators or agonists).), 1710 (Screening assay (NPY-Y2 agonists).), 1791 (Summary AID.)]; assay type: functional
T2 sequence (P49146 whole entry): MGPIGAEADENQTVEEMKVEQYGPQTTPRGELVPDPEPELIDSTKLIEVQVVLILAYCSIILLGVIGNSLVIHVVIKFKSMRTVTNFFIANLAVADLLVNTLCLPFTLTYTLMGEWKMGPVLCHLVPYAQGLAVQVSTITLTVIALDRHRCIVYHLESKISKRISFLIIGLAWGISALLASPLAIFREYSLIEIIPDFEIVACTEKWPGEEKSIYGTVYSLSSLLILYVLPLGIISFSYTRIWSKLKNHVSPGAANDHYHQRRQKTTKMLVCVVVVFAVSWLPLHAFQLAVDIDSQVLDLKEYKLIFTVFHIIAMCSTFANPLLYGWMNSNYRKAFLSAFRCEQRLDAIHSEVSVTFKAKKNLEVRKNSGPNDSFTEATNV

[7] = molecular target: T3, Neuropeptide Y receptor type 1 (Homo sapiens, UniProt P25929); assay: Fluorescence-based counterscreen for agonists of NPY-Y2: cell-based high-throughput dose response assay for agonists of NPY-Y1.; assay type: functional
T3 sequence (P25929 whole entry): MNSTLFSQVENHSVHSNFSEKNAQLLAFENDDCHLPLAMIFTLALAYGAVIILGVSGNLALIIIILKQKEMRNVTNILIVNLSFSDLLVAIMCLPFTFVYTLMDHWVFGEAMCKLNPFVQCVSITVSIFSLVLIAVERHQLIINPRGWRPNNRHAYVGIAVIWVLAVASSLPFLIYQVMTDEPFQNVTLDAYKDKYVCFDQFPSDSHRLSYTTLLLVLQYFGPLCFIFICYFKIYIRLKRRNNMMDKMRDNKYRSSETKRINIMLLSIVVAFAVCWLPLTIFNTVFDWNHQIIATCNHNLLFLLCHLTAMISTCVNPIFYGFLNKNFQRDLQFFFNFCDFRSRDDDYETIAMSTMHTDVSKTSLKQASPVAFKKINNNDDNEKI

[8] = Counterscreen for IDE inhibitors: Luminescence-based cell-based high throughput dose response assay to identify compounds that are cytotoxic to HEK cells. [Related pubchem assays: 434962 (Primary screen (IDE inhibitors in singlicate)), 449730 (Counterscreen (Cytotoxicity in triplicate)), 435028 (Confirmation (IDE inhibitors in triplicate)) …; assay type: functional; conditions: HEK293
Insulin-degrading enzyme = molecular target: T4, Insulin-degrading enzyme (Homo sapiens, UniProt P14735); assay: Dose Response: Fluorescence polarization-based cell-based high throughput dose response assay for inhibitors of insulin-degrading enzyme (IDE). [Related pubchem assays: 434962 (Primary screen (IDE inhibitors in singlicate)), 449730 (Counterscreen (Cytotoxicity in triplicate)), 435028 (Confirmation (IDE inhibitors in triplicate)), 434984 (Summary …; assay type: functional
T4 sequence (P14735 whole entry): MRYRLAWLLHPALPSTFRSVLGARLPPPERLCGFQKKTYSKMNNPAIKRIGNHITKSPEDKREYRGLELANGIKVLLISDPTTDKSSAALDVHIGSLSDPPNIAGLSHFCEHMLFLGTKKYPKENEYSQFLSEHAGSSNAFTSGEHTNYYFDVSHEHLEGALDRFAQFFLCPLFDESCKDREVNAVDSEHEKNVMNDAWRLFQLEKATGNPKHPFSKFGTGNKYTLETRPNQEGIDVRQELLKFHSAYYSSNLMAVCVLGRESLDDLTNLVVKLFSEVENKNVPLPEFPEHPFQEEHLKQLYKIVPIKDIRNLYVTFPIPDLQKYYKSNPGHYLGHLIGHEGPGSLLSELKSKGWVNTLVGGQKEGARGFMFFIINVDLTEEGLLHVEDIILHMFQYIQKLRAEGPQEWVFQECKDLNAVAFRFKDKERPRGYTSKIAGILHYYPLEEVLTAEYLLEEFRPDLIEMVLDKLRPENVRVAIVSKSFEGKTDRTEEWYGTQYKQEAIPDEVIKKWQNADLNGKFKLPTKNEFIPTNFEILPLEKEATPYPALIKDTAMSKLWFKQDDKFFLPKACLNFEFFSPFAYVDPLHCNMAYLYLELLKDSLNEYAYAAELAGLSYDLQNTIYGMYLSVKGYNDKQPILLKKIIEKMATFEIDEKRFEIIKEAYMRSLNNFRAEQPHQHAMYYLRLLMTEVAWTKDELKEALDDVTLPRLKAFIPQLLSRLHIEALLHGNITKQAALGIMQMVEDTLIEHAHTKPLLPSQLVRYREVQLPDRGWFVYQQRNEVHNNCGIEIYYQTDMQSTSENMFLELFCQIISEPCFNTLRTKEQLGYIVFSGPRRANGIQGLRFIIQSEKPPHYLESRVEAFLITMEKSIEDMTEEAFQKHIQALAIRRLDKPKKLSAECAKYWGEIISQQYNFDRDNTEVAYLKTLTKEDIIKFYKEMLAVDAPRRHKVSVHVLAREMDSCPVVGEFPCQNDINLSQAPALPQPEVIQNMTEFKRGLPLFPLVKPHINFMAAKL

[9] = molecular target: Peroxisome proliferator-activated receptor gamma/Nuclear receptor coactivator 2 (Homo sapiens, UniProt P37231); assay type: functional;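 also: agonist potency for raising coactivator recruitment to the receptor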
[10] = molecular target: Peroxisome proliferator-activated receptor gamma/Nuclear receptor coactivator 1 (Homo sapiens, UniProt P37231); assay type: functional;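 also: agonist potency as compounds enhance coactivator SRC-1 recruitment to PPARgamma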
[11] = molecular target: Peroxisome proliferator-activated receptor gamma/Nuclear receptor coactivator 3 (Homo sapiens, UniProt P37231); assay type: functional;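 also: agonist potency for raising coactivator recruitment to the receptor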

Protein Tat, sequence (P04608 whole entry): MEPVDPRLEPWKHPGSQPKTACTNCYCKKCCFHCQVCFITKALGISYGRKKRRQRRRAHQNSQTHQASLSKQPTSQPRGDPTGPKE
Peroxisome proliferator-activated receptor gamma/Nuclear receptor coactivator 2, sequence (P37231 whole entry): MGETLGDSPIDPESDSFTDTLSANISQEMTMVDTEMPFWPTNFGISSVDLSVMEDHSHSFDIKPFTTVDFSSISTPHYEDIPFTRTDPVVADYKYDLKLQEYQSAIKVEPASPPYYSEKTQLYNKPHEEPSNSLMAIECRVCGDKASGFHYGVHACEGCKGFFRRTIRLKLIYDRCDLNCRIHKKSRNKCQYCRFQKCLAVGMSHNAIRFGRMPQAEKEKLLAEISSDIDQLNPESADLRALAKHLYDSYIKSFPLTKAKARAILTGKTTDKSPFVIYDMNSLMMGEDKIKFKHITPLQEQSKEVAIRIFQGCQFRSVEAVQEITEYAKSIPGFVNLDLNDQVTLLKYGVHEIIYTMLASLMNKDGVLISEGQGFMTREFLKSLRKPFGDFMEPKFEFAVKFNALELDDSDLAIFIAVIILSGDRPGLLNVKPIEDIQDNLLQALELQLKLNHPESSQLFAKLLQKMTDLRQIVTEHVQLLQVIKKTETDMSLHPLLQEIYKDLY
Peroxisome proliferator-activated receptor gamma/Nuclear receptor coactivator 2, sequence (Q15596 whole entry, further chain): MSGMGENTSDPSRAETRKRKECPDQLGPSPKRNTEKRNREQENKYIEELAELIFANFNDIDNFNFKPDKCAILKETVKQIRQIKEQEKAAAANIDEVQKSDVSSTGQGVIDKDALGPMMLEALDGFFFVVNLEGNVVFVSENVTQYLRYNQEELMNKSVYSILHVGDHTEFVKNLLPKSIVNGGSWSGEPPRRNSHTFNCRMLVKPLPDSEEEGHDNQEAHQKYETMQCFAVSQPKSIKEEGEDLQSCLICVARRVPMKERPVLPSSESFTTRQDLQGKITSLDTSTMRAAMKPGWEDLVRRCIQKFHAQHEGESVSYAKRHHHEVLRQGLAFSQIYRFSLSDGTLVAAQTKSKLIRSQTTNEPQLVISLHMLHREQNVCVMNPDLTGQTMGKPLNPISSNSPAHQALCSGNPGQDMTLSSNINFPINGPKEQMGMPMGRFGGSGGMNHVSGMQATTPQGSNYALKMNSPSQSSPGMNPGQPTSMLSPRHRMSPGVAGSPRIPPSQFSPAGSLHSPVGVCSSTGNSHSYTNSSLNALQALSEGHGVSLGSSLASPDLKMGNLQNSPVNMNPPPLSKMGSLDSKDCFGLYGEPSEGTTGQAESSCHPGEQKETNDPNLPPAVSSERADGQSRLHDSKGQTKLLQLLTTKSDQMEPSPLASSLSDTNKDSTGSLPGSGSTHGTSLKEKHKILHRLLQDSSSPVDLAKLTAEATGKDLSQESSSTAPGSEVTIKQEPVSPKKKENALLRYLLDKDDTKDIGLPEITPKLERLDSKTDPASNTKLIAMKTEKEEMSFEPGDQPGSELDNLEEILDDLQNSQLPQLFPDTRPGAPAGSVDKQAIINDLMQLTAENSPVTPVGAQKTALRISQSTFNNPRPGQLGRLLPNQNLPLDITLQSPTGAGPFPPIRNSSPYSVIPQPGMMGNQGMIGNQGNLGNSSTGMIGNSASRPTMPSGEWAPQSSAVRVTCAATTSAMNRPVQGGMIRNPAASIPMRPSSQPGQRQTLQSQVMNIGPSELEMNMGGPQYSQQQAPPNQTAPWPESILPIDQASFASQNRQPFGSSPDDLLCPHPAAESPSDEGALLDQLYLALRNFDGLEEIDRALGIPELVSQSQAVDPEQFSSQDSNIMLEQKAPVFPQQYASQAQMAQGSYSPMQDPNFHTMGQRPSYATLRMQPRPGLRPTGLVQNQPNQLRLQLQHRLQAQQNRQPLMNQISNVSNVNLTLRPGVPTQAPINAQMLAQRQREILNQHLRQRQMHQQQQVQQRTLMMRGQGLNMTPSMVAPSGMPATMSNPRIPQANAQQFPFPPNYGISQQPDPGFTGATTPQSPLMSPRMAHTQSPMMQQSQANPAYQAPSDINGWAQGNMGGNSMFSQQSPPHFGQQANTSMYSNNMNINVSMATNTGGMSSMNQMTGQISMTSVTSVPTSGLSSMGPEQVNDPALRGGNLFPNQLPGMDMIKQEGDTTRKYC
Peroxisome proliferator-activated receptor gamma/Nuclear receptor coactivator 1, sequence (P37231 whole entry): as the sequence (P37231 whole entry) above
Peroxisome proliferator-activated receptor gamma/Nuclear receptor coactivator 1, sequence (Q15788 whole entry, further chain): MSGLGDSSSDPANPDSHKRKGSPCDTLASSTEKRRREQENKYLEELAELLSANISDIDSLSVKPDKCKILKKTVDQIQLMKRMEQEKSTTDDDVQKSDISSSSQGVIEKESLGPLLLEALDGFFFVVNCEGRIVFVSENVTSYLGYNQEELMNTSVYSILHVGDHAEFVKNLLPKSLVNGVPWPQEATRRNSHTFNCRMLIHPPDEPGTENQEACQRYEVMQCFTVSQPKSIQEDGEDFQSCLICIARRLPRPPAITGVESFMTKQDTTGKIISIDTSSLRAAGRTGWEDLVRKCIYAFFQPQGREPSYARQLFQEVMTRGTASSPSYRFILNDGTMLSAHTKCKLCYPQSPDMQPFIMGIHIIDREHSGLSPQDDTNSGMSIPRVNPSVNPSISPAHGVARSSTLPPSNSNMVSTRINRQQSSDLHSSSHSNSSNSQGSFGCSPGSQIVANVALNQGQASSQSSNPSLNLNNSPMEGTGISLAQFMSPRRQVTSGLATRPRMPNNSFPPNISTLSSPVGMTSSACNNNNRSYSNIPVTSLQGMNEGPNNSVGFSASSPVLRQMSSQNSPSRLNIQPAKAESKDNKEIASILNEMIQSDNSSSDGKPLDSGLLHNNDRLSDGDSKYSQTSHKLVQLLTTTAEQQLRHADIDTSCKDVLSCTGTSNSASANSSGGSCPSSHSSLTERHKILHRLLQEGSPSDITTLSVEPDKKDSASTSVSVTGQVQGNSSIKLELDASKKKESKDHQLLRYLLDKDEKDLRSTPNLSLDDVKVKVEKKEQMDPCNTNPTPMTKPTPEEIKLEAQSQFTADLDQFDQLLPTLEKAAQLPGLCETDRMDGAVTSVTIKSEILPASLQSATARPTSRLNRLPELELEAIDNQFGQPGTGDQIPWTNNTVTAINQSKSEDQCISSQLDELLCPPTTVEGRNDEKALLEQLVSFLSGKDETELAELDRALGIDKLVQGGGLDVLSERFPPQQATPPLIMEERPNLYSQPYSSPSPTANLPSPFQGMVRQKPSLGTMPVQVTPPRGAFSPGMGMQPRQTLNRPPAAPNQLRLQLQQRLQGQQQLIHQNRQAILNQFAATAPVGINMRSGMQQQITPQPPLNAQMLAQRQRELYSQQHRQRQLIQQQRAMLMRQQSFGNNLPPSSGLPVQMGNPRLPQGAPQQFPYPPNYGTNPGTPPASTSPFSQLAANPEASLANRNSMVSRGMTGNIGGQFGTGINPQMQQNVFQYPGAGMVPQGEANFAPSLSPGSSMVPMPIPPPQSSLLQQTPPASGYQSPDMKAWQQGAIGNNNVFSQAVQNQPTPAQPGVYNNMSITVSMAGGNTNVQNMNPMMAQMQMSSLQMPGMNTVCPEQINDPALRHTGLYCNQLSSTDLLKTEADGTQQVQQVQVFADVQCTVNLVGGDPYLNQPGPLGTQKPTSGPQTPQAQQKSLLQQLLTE

SMILES: Oc1cccc(/C=N/c2c(-c3ccco3)nc3ccccn23)c1
- EC50 (cells [1]): > 350 µM (not active)
- EC50 (Bcl-2-like protein 10): 9.07 µM (active)
- EC50 (cells [2]): 66.5 µM (active)
- CC50 (Vero): > 40 µM (active)
- IC50 (Protein Tat): 53.3 µM (inconclusive)
- CC50 [3]: > 40 µM (active)
- IC50 [4]: > 66.8 µM (active)

SMILES: CC(=O)Nc1ccc(-c2cc3ccccc3o2)cc1
- CC50 [5]: 28.2 µM (active)
- EC50 (HEK293): 27.4 µM (not active)
- EC50 [6]: > 35.4 µM (not active)
- EC50 [7]: 28.9 µM (not active)

SMILES: Cc1ccc(/C=N\NC(=O)/C(=C\Nc2nccc(C)n2)NC(=O)c2ccccc2)cc1
- IC50 [8]: > 55.7 µM (not active)
- IC50 (Insulin-degrading enzyme): 5.43 µM (active)

SMILES: CC(C)(C)c1ccc(OCc2ccc(C(=O)N3CCOCC3)o2)cc1
- EC50 [9]: > 79.4 µM (not active)
- EC50 [10]: > 79.4 µM (not active)
- EC50 [11]: > 79.4 µM (not active)
